Laboratory results as given in patent US20150087723A1, “MICROBIAL COMPOSITION” (Rohm and Haas Company, priority 2011, published 2015).

Assays:
Format in all cases: cell-based
[1] = tested on: Escherichia coli (E. coli—ATCC #10536); experiment: Automated assessment of efficacy in model surfactant base (2.85% sodium cocoyl glycinate + 1.85% sodium lauroamphoacetate, pH 10), 15 seconds exposure, OD450/OD590 readout; details: for MBC: Escherichia coli, ATCC10536, 15 s, in 2.85% sodium cocoyl glycinate + 1.85% sodium lauroamphoacetate solution at pH 10, E. coli, read-out: MBC (% w/v); for No. of replicates showing growth (out of 4) / Δ OD 450 nm = OD450 (time = 16 hours) - OD450 (time zero), Mean / Δ OD 590 nm OD590 (time = 16 hours) - OD590 (time zero), Mean: model surfactant solution
Experimental: Solutions were prepared such that the concentrations of the surfactant components and test actives were 1.1×x the final desired concentration in order to allow for dilution with the bacterial inoculum in the test. The solutions were manually adjusted to pH 10.0 by drop wise addition of sodium hydroxide solution, as measured with a phi meter at ambient temperature.
Tests were conducted using standard microtiter plate assays using an automated liquid handling system, 270 μl of the surfactant test solution was pipetted into each well of the microtitre plate and 30 μl of the bacterial suspension was then added. After exactly 15 seconds of bacterial exposure, a 30 μl volume of bacterial cells was withdrawn and transferred to 270 μl of D/E quench solution. After 5 minutes in the D/E quench, the optical density (OD) was measured for each plate in turn at two specific wavelengths (450 nm and 590 nm). These provide a dual check of antimicrobial activity, as the OD450 reading is specific for the yellow colour of D/E quench when bacterial growth is observed, whereas OD590 is specific for the initial purple colour of the D/E quench which is retained if no bacterial growth is observed. After the time zero OD measurements, plates were then incubated at 37° C. overnight (16 hours) before repeating the OD measurements. Delta OD values were calculated by subtracting […] the initial value at time zero. Bacterial growth is observed as an increase in OD450 and a decrease in ΔOD590. To identify antibacterially efficacious systems (those preventing appreciable bacterial growth after incubation), the following threshold changes in OD readings have been adopted: if (1), OD450 increases by less than 0.2 absorbance unit on incubation and (2). OD590 decreases by less than 0.35 unit on incubation. Conversely, where OD450 increases by more than 0.2 AU and OD590 decreases by more than 0.35 unit after incubation, corresponding to a colour shift from purple to yellow, the test system allows bacterial growth and is not deemed efficacious. Four replicate measurements in the same plate have been made for each test system. The number of replicate wells showing either bacterial growth or no growth is also readily assessed by eye by following the colour change.
Dose responses for individual components and binary mixtures of actives at a used concentration ratio were generated by sequential dilution of liquors with further surfactant solution to obtain a series of endpoints.
In some selected cases, the combinations were also tested at the weight ratio 1:1.

[2] = tested on: Escherichia coli (10536 strain); experiment: Antimicrobial efficacy in water, 15 seconds contact, mean bacterial survival NMBS by colony count
Experimental: An overnight culture of Escherichia coli (10536 strain) was prepared in 50 ml total volume of TSB broth, grown for ca. 18 hrs at 37° C. and shaken at 150 rpm. 1 ml of this overnight E. coli culture was transferred to 50 ml of fresh TSB broth and incubated at 37° C. at 150 rpm for ca. 4 hours. […] This bacterial stock was used for assaying against antimicrobial actives (in triplicate).
The following assay describes the testing of 8 materials using 6 dilutions across half of a 96-well micro litre plate (MTP). Using this approach it is possible to assay 16 actives (without replicates) with, one full dilution plate, replicating this set up in two halves of the plate columns, 1-6 and 7-12.
IM solutions of the test actives were prepared in dimethylsulphoxide (DMSO).
Aliquots (270 μl) of the materials at 1.11 times the final concentration were dispensed into the wells of the MTP along one column (A1-H1). This MTP was labeled as the “Screening plate”.
In another MTP, labeled as the “Dilution plate”, 270 μl of D/E neutralising solution from DIFCO Composition was added to column 1. The composition of the neutralising solution was as follows: pancreatic digest of casein, 5.0 g/L; Yeast Extract, 2.5 g/L; Dextrose, 10 g/L, sodium thioglycollate, 1.0 g/L, sodium thiosulphate, 6.0 g/L; sodium bisulphite, 2.5 g/L; Polysorbate 80, 5.0 g/L; lecithin 7.0 g/L; bromocresol purple, 0.02 g/L with a pH is the range 7.6±0.2.
270 μl of tryptone diluent solution was added to all the remaining wells of the Dilution MTP (columns 2-6).
Bacterial stock (30 μl) was then added to the prepared 270 μl of the solution of actives in the Screening Plate and mixed, using a multichannel pipette with 8 tips to aspirate and dispense the same volume of bacterial stock in parallel to 8 wells in rows A-H. After a contact time of 15 seconds, the mixtures were quenched by transferring 30 μl volumes of the mixtures into the 270 μl D/E neutralising solution in the prepared dilution plate, using aspiration to mix. After exactly 5 minutes in the D/E neutralising solution, 30 μl volumes were transferred from column 1 to column 2 of the Dilution MTP and mixed, before transferring further 30 μl volumes from column 2 into column 3. This process was repeated serially diluting the bacteria across the plate to column 6.
30 μl volumes from each well in the Dilution MTP were transferred onto pre-labeled segment of Tryptone Soya Agar (TSA) plates starting from the lowest bacterial concentration (highest dilution, column 6) to the highest bacterial concentration (column 1). The TSA plates were allowed to stand for ca. 2 hours so that the 30 μl inocula spots could dry and the plates were then inverted and incubated overnight at 37° C. before enumerating the bacterial colonies at the labeled dilutions to determine the effects of the actives on bacterial growth.
Mean bacterial survival numbers NMBS (expressed in Log CFU/ml) are obtained by first determining the segment of the TSA plate where the number of bacterial colonies is countable. From the colony number in this segment, NMBS is calculated by the formula: […]
Here, Ncol is the colony count, and DF is the dilution factor taken from the MTP-well corresponding to the TSA plate segment (i.e. DF may range from 1 for the quench, to 6 for the highest dilution).

[3] = tested on: Staphylococcus aureus (10788 strain); experiment: as above

CC(C)=CCC/C(C)=C/CO [(E)-3,7-dimethylocta-2,6-dien-1-ol]
MBC [1]: > 5000 µg/mL | No. of replicates showing growth (out of 4) ([1]; component alone at 0.2% w/v): 4 out of 4 | Δ OD 450 nm = OD450 (time = 16 hours) - OD450 (time zero), Mean ([1]; component alone at 0.2% w/v): −0.54 | Δ OD 590 nm OD590 (time = 16 hours) - OD590 (time zero), Mean ([1]; component alone at 0.2% w/v): 0.60 | No. of replicates showing growth (out of 4) ([1]; component alone at 0.3% w/v): 4 out of 4 | Δ OD 450 nm = OD450 (time = 16 hours) - OD450 (time zero), Mean ([1]; component alone at 0.3% w/v): −0.51 | Δ OD 590 nm OD590 (time = 16 hours) - OD590 (time zero), Mean ([1]; component alone at 0.3% w/v): 0.59 | No. of replicates showing growth (out of 4) ([1]; component alone at 0.4% w/v): 4 out of 4 | Δ OD 450 nm = OD450 (time = 16 hours) - OD450 (time zero), Mean ([1]; component alone at 0.4% w/v): −0.49 | Δ OD 590 nm OD590 (time = 16 hours) - OD590 (time zero), Mean ([1]; component alone at 0.4% w/v): 0.60 | No. of replicates showing growth (out of 4) ([1]; component alone at 0.5% w/v): 4 out of 4 | Δ OD 450 nm = OD450 (time = 16 hours) - OD450 (time zero), Mean ([1]; component alone at 0.5% w/v): −0.45 | Δ OD 590 nm OD590 (time = 16 hours) - OD590 (time zero), Mean ([1]; component alone at 0.5% w/v): 0.62 | No. of replicates showing growth (out of 4) ([1]; component alone at […] w/v): 4 out of 4 | Δ OD 450 nm = OD450 (time = 16 hours) - OD450 (time zero), Mean ([1]; component alone at […] w/v): −0.53 | Δ OD 590 nm OD590 (time = 16 hours) - OD590 (time zero), Mean ([1]; component alone at […] w/v): 0.58 | Terpene alcohol MBC %(w/v) ([1]; terpene alcohol alone, model surfactant, E. Coli): 0.5 %(w/v) | Log reduction E. coli ATCC 10536 ([2]; component alone at 0.1% w/v): 1.27 | Log reduction E. coli ATCC 10536 ([2]; component alone at […] w/v): 1.94 | Log reduction S. aureus ATCC 6538 ([3]; component alone at 0.1% w/v): −0.12 | Log reduction S. aureus ATCC 6538 ([3]; component alone at […] w/v): −0.06

CCCc1ccccc1O [2-n-propylphenol]
MBC [1]: 1750 µg/mL | No. of replicates showing growth (out of 4) ([1]; component alone at 0.125% w/v): 4 out of 4 | Δ OD 450 nm = OD450 (time = 16 hours) - OD450 (time zero), Mean ([1]; component alone at 0.125% w/v): −1.34 | Δ OD 590 nm OD590 (time = 16 hours) - OD590 (time zero), Mean ([1]; component alone at 0.125% w/v): 0.54 | No. of replicates showing growth (out of 4) ([1]; component alone at 0.175% w/v): 0 out of 4 | Δ OD 450 nm = OD450 (time = 16 hours) - OD450 (time zero), Mean ([1]; component alone at 0.175% w/v): −0.10 | Δ OD 590 nm OD590 (time = 16 hours) - OD590 (time zero), Mean ([1]; component alone at 0.175% w/v): 0.09 | No. of replicates showing growth (out of 4) ([1]; component alone at […] w/v): 4 out of 4 | Δ OD 450 nm = OD450 (time = 16 hours) - OD450 (time zero), Mean ([1]; component alone at […] w/v): −1.43 | Δ OD 590 nm OD590 (time = 16 hours) - OD590 (time zero), Mean ([1]; component alone at […] w/v): 0.44
